{"source": "patent US7205316B2", "about": "“Tri- and bi-cyclic heteroaryl histamine-3 receptor ligands” (Abbott Laboratories, priority 2004, dated 2007)", "note": "Where a name gives a salt, the structure may show the parent alone.", "data": [{"smiles": "Cc1nc2cc(-c3ccc4nc(CCN5CCC[C@H]5C)ccc4c3)ccc2s1", "note": "(as salt: hydrochloride) [Example 14, 6-(2-Methyl-benzothiazol-5-yl)-2-[2-(2R-methyl-pyrrolidin-1-yl)-ethyl]-quinoline]", "values": [{"measurement": "melting point", "value": "182 to 183", "unit": "°C"}]}]}
